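Tested at 5 concentrations; 48 h exposure; 96-well plates; endpoints linearly interpolated, else capped at highest concentration. GI50 = concentration required for 50% inhibition of growth.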 Calls of active or inactive are those of the source. No stated cut-off is given here; in the data, active = GI50 up to about 1.1 µM and inactive = higher.
Experiments:
Assay in all cases: NCI anticancer screen, dose series, 48 h
HT-29 = system: HT-29
MOLT-4 = system: MOLT-4
OVCAR-8 = system: OVCAR-8
CCRF-CEM = system: CCRF-CEM
HOP-62 = system: HOP-62
OVCAR-4 = system: OVCAR-4
KM12 = system: KM12
HCT-116 = system: HCT-116
U-251 = system: U-251
SR = system: SR
A498 = system: A498
TK-10 = system: TK-10
786-0 = system: 786-0
SN12C = system: SN12C
SNB-19 = system: SNB-19
HOP-92 = system: HOP-92

SMILES	GI50 (HT-29)	GI50 (MOLT-4)	GI50 (OVCAR-8)	GI50 (CCRF-CEM)	GI50 (HOP-62)	GI50 (OVCAR-4)	GI50 (KM12)	GI50 (HCT-116)	GI50 (U-251)	GI50 (SR)	GI50 (A498)	GI50 (TK-10)	GI50 (786-0)	GI50 (SN12C)	GI50 (SNB-19)	GI50 (HOP-92)
CC(CCc1ccc2c(c1)c(N)c1ccc(N)cc1[n+]2[O-])CC(C)(C)C (stereo unspecified)	1.22 µM (inactive)	1.09 µM (active)	1.72 µM (inactive)	0.542 µM (active)	1.83 µM (inactive)	2.05 µM (inactive)	1.99 µM (inactive)	1.93 µM (inactive)	1.38 µM (inactive)	1.62 µM (inactive)	1.89 µM (inactive)	1.83 µM (inactive)	1.5 µM (inactive)	1.79 µM (inactive)		
CCc1ccccc1NC(=O)CC1NC(=O)CS1 (stereo unspecified)		> 100 µM (inactive)	> 100 µM (inactive)	> 100 µM (inactive)	> 100 µM (inactive)	> 100 µM (inactive)	> 100 µM (inactive)	> 100 µM (inactive)	> 100 µM (inactive)		> 100 µM (inactive)	> 100 µM (inactive)	> 100 µM (inactive)	> 100 µM (inactive)	> 100 µM (inactive)	> 100 µM (inactive)
NC(=S)N/N=C1\C(=O)N(CCc2ccccc2)C(=O)C1C(=O)NCCc1ccccc1 (stereo unspecified)	> 100 µM (inactive)		> 100 µM (inactive)		> 100 µM (inactive)	> 100 µM (inactive)	> 100 µM (inactive)	> 100 µM (inactive)	> 100 µM (inactive)		> 100 µM (inactive)	> 100 µM (inactive)	> 100 µM (inactive)	> 100 µM (inactive)	> 100 µM (inactive)	> 100 µM (inactive)
CCOC(=O)/C(O)=C(/c1n[nH]c(=O)c2ccccc12)[N+](=O)[O-]	> 100 µM (inactive)	> 100 µM (inactive)	> 100 µM (inactive)	> 100 µM (inactive)	> 100 µM (inactive)	> 100 µM (inactive)	> 100 µM (inactive)	> 100 µM (inactive)	> 100 µM (inactive)		> 100 µM (inactive)	> 100 µM (inactive)	> 100 µM (inactive)	> 100 µM (inactive)	> 100 µM (inactive)	> 100 µM (inactive)
Cc1ccc(/C=C2\CCCCC2=O)cc1	46.6 µM (inactive)	15.8 µM (inactive)	> 100 µM (inactive)	28.1 µM (inactive)	> 100 µM (inactive)	33.6 µM (inactive)		43.4 µM (inactive)	> 100 µM (inactive)		> 100 µM (inactive)	> 100 µM (inactive)	> 100 µM (inactive)	97.5 µM (inactive)		
OCCNCCOc1ccc(/C(=C(/Cl)c2ccccc2)c2ccccc2)cc1	1.11 µM (active)	1.69 µM (inactive)	13.5 µM (inactive)	1.92 µM (inactive)	16.7 µM (inactive)	16.5 µM (inactive)	0.544 µM (active)	4.99 µM (inactive)	8.43 µM (inactive)	3.34 µM (inactive)		0.408 µM (active)	9.68 µM (inactive)	5.3 µM (inactive)	13.9 µM (inactive)	
c1ccc(C(c2ccccc2)c2ccccn2)cc1	> 100 µM (inactive)		> 100 µM (inactive)	> 100 µM (inactive)	> 100 µM (inactive)	> 100 µM (inactive)	> 100 µM (inactive)	> 100 µM (inactive)	> 100 µM (inactive)		> 100 µM (inactive)	> 100 µM (inactive)	> 100 µM (inactive)	> 100 µM (inactive)	> 100 µM (inactive)	
O=c1c2ccccc2c2nc3ccccc3nc2n1C1CCCCC1	> 100 µM (inactive)	> 100 µM (inactive)	86.3 µM (inactive)			32.9 µM (inactive)	> 100 µM (inactive)	> 100 µM (inactive)	> 100 µM (inactive)	> 100 µM (inactive)		> 100 µM (inactive)	> 100 µM (inactive)	> 100 µM (inactive)	> 100 µM (inactive)	
CCO/C=C1\N=C(c2ccc(Cl)c(Cl)c2)OC1=O	> 100 µM (inactive)	> 100 µM (inactive)	> 100 µM (inactive)	> 100 µM (inactive)	50 µM (inactive)	> 100 µM (inactive)	> 100 µM (inactive)				27 µM (inactive)	> 100 µM (inactive)	> 100 µM (inactive)	> 100 µM (inactive)	> 100 µM (inactive)	> 100 µM (inactive)
C[C@]12CC[C@H](O)CC1CCC[C@@H]2O (stereo partly specified)	> 100 µM (inactive)	> 100 µM (inactive)	> 100 µM (inactive)	> 100 µM (inactive)	> 100 µM (inactive)	> 100 µM (inactive)	> 100 µM (inactive)	> 100 µM (inactive)	> 100 µM (inactive)		> 100 µM (inactive)	> 100 µM (inactive)	> 100 µM (inactive)	> 100 µM (inactive)	> 100 µM (inactive)	> 100 µM (inactive)
CCOC(=O)CN(c1ccccc1)c1nc(=[N+](C)C)ss1		1.77 µM (inactive)	20 µM (inactive)	0.979 µM (active)	33 µM (inactive)	17.7 µM (inactive)		5.65 µM (inactive)	17.9 µM (inactive)	0.678 µM (active)	42.5 µM (inactive)	47.4 µM (inactive)	37.9 µM (inactive)	17.9 µM (inactive)	61.9 µM (inactive)	
CC(=O)O[C@H]1C(=O)[C@@]2(C)C([C@H](OC(=O)c3ccccc3)[C@]3(O)C[C@H](OC(=O)[C@H](O)[C@H](NC(=O)c4ccccc4)c4ccc(Cl)cc4)C(C)=C1C3(C)C)C1(OC(C)=O)CO[C@@H]1C[C@@H]2O (stereo partly specified)	0.000106 µM (active)	0.01 µM (active)	0.00115 µM (active)	0.00188 µM (active)	0.00839 µM (active)	0.889 µM (active)	0.000282 µM (active)	0.000113 µM (active)	0.00182 µM (active)	0.000119 µM (active)	0.0256 µM (active)	0.0226 µM (active)	0.00711 µM (active)	0.000841 µM (active)	0.0304 µM (active)	
COC(=O)C(=O)C(C(=O)C(=O)Nc1cc([N+](=O)[O-])ccc1C#N)c1nc2ccccc2nc1O (stereo unspecified)	> 100 µM (inactive)	> 100 µM (inactive)	> 100 µM (inactive)	> 100 µM (inactive)	> 100 µM (inactive)	> 100 µM (inactive)	> 100 µM (inactive)	> 100 µM (inactive)		> 100 µM (inactive)		> 100 µM (inactive)	> 100 µM (inactive)	> 100 µM (inactive)	> 100 µM (inactive)	40.6 µM (inactive)
COc1cc(Cl)c2c3c(c(C(=O)c4ccccc4)oc13)CCC2	> 100 µM (inactive)	> 100 µM (inactive)	> 100 µM (inactive)	> 100 µM (inactive)	> 100 µM (inactive)	> 100 µM (inactive)		> 100 µM (inactive)	> 100 µM (inactive)		> 100 µM (inactive)	> 100 µM (inactive)	> 100 µM (inactive)	> 100 µM (inactive)	> 100 µM (inactive)	< 0.01 µM (active)
